Test results reported in ChEMBL document CHEMBL1201862, “PubChem BioAssay data set” (2004).
The source made the active and inactive calls. Cut-off read from the data, not from the text of the source, for most assays here: actives have a measured EC50 and inactives only a lower limit.

What was measured:
Streptococcus [1] = test: GAS UMAA2166 growth inhibition – luminescence, BacTiterGlo, counter-screen for streptokinase expression inhibitor project, dose response (AID 1915); type: functional, organism-based;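 note: potency for reduction of bacterial viability or growth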
Streptokinase A = biological target: T1, Streptokinase A (Streptococcus pyogenes serotype M1, UniProt P10520); test: viability-normalized secreted streptokinase activity reduction – plasminogen activation absorbance, OD405, dose response (AID 1914); type: functional, Streptococcus pyogenes M1 GAS;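 note: secreted streptokinase activity via plasminogen activation per viability signal from cell pellet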
T1 sequence (P10520 whole entry): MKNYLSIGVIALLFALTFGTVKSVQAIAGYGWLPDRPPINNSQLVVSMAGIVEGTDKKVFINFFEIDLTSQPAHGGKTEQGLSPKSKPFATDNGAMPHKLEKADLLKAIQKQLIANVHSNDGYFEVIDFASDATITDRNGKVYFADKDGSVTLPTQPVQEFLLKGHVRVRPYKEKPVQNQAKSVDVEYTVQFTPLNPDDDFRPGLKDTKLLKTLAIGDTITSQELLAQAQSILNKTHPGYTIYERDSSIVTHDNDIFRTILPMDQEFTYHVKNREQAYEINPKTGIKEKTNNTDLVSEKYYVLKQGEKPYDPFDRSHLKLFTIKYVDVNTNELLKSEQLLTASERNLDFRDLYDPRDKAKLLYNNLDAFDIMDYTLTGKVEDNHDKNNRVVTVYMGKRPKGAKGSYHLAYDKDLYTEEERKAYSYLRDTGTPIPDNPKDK

Streptococcus [2] = test: Luminescence Microorganism-Based Dose Response Follow up to Identify Compounds Cytotoxic to Streptococcus. [Related pubchem assays: 1677 (Project Summary), 1915, 1914, 1902 (Retest at Dose), 1900 (Counter Screen), 1662 (Primary HTS)]; type: functional, organism-based
[3] = system: Streptococcus sp. 'group A'; test: Streptococcus pyogenes SK(-)GAS viability under kanamycin – luminescence, BacTiterGlo, confirmation, counter-screen for streptokinase expression inhibitor project, dose response (AID 1900); type: functional, organism-based
NS3 = NS3 (Hepatitis C virus, UniProt A3EZJ3); test: PubChem AID 2173; parameters: species or system Hepacivirus hominis
Sequence of NS3 (A3EZJ3 whole entry): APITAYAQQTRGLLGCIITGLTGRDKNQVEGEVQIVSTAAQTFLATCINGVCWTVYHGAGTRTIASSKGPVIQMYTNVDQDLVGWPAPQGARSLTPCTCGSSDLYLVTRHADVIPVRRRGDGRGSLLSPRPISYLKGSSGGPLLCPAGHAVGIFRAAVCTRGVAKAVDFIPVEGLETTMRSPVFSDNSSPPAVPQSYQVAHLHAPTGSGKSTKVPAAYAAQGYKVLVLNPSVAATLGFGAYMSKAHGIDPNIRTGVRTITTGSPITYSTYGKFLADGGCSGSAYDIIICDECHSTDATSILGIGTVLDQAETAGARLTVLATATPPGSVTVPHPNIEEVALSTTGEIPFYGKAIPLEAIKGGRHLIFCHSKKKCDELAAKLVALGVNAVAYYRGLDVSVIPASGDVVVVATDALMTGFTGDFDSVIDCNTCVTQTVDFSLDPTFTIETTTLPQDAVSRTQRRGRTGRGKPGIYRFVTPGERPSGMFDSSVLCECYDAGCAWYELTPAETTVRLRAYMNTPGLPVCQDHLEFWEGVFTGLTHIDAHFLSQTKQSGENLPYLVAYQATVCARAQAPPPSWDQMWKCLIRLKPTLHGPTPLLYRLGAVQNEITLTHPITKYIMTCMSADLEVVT

[4] = biological target: T2, Zinc finger protein mex-5 (Caenorhabditis elegans, UniProt Q9XUB2); test: potency of MEX-5 RNA-binding blockers – biochemical, C. elegans, fluorescence polarization, dose response (AID 1960)
T2 sequence (Q9XUB2 whole entry): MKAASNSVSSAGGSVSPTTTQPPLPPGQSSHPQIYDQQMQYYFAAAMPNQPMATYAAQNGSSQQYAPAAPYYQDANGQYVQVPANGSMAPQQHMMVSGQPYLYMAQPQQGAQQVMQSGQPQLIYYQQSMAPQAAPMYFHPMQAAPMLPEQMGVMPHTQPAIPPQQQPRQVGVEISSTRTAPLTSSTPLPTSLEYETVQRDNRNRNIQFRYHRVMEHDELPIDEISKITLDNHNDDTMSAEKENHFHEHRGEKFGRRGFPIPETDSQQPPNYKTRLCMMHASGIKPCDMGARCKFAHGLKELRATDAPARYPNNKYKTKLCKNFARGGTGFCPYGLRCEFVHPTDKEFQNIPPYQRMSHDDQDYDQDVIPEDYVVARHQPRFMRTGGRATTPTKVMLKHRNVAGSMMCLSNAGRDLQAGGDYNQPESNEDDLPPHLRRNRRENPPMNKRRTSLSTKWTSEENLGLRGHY

[5] = biological target: T3, RNA-binding protein pos-1 (Caenorhabditis elegans, UniProt G5EF15); test: disruptors of C. elegans POS-1 RNA interaction – biochemical, fluorescence polarization, dose response (AID 1964);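 note: purified POS-1 fused to maltose binding protein made in E. coli; potency of compounds blocking POS-1 binding to fluorescent RNA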
T3 sequence (G5EF15 whole entry): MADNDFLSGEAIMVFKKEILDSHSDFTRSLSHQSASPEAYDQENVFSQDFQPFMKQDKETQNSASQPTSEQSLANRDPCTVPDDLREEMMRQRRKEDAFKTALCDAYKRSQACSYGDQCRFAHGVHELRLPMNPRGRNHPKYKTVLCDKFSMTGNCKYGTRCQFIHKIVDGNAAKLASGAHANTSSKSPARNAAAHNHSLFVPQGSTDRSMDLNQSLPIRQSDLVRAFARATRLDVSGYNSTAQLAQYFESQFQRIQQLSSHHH

Salmon testes DNA = test: acridine orange-DNA binding displacement – biochemical, fluorescence polarization, cherry-picked samples, set 2, artefact control for KSHV LANA DNA-binding inhibitor project, dose response (AID 504727); parameters: species or system Salmonidae
[6] = NIH3T3 cell viability loss – ATP luminescence, mouse fibroblasts, counter-screen, dose response (AID 2010); type: functional, cell-based;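 note: cells exposed to compound for about 90 hours before reading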
[7] = Trypanosoma cruzi growth suppression in host cells – NIH3T3 host cells, beta-gal luminescence, confirmation (AID 2044); type: functional, cell-based;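 note: intracellular parasites grown in NIH/3T3 mouse fibroblasts as host cells; luminescent beta-galactosidase reporter signal from transgenic T. cruzi replicating inside host cells; inhibitors lower the luminescence signal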
[8] = mitochondrial function rescue without frataxin homolog – Friedreich's ataxia, plus single-dose screen, dose response (AID 1465); type: functional;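 note: yeast depleted of Yfh1p frataxin homolog grown on glycerol needing respiration; WST-1 tetrazolium dye reduction as measure of cellular dehydrogenase metabolic activity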
[9] = biological target: Melanin-concentrating hormone receptor 1 (Homo sapiens, UniProt Q99705); test: Fluorescence-based counterscreen for antagonists of the G-protein coupled receptor 7 (GPR7): cell-based high throughput dose response assay to identify antagonists of the melanin-concentrating hormone receptor 1 (MCHR1).; type: functional
Sequence of Melanin-concentrating hormone receptor 1 (Q99705 whole entry): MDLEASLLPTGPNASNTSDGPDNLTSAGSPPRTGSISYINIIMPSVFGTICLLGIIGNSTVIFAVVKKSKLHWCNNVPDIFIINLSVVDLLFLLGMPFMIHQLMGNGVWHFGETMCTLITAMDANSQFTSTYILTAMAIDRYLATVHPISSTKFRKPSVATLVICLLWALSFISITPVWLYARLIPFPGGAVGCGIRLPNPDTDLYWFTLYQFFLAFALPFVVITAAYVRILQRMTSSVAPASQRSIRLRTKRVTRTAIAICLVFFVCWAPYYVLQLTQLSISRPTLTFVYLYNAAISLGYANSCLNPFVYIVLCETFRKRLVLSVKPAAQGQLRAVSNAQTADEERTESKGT

[10] = biological target: Neuropeptide Y receptor type 2 (Homo sapiens, UniProt P49146); test: IC50 for human NPY-Y2 blockade – cell-based, counter-screen for NPY-Y1 antagonist project, dose response (AID 1278); type: functional
Sequence of Neuropeptide Y receptor type 2 (P49146 whole entry): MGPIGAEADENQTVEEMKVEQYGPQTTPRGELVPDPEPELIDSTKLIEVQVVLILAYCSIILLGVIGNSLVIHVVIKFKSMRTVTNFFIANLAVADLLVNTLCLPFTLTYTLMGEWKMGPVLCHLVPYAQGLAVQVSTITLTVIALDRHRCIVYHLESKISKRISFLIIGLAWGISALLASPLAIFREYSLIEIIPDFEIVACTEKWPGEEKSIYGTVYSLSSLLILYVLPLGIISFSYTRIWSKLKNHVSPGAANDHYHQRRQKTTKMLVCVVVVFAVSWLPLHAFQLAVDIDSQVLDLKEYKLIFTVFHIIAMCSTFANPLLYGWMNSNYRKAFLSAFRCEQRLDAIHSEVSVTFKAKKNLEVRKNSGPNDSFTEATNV

[11] = biological target: Neuropeptide Y receptor type 1 (Homo sapiens, UniProt P25929); test: IC50 of human NPY-Y1 blockers – cell-based, dose response (AID 1277); type: functional
Sequence of Neuropeptide Y receptor type 1 (P25929 whole entry): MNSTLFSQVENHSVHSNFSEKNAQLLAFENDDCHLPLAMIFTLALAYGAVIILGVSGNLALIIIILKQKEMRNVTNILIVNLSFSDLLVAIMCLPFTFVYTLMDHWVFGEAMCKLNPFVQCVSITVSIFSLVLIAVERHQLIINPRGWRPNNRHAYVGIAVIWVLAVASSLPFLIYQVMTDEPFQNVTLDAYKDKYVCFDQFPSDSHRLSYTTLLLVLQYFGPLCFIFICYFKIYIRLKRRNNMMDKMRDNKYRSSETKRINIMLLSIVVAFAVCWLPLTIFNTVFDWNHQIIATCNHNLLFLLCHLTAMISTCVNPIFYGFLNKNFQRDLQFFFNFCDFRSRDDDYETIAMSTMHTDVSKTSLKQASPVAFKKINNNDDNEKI

[12] = biological target: Neurotensin receptor type 1 (Homo sapiens, UniProt P30989); type: functional;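 note: Image-based confirmatory dose-response assay measuring agonist activity at NTR1; NTR1-expressing U2OS osteosarcoma cells imaged for beta-arrestin GFP spot formation; agonist potency where compounds increase beta-arrestin recruitment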
Sequence of Neurotensin receptor type 1 (P30989 whole entry): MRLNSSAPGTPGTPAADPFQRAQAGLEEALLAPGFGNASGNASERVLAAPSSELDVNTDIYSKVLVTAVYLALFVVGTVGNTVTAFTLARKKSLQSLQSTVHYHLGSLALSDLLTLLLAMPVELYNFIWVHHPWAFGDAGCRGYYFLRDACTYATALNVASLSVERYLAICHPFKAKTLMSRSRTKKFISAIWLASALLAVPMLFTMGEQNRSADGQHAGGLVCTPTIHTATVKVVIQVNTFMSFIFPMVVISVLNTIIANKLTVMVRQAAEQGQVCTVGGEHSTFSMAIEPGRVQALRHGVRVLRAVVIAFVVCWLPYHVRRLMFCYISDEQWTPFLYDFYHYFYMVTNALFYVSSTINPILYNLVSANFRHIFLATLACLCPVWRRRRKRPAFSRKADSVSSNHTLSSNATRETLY

Compound: COc1ccc(-c2csc3ncnc(N4CCN(c5ccccc5Cl)CC4)c23)cc1
- EC50 (Streptococcus [1]): > 150 µM (not active)
- EC50 (Streptokinase A): 3.7 µM (active)
- EC50 (Streptococcus [2]): > 500 µM (not active)
- EC50 [3]: 82.6 µM (active)

Compound: Cc1cc(Cl)ccc1Oc1ccccc1C(=O)CC#N
- IC50 (NS3): 3.54 µM (active)

Compound: COc1cccc(OCCCn2cc(/C=C3/C(=N)N4C=C(C)SC4=NC3=O)c3ccccc32)c1
- EC50 [4]: 109 µM (active)
- EC50 [5]: 108 µM (active)
- AC50 (Salmon testes DNA): 65.9 µM (active)
- EC50 [6]: > 60 µM (not active)
- EC50 [7]: 1.34 µM (active)

Compound: CCOc1ccc2nc(NN=C3C(=O)NC(=O)NC3=O)sc2c1
- EC50 [8]: > 100 µM (active)

Compound: Cc1ccc(C2C3=C(NCCN=C3c3ccccc3)C(=O)N2c2ccccc2)cc1 (stereo not given)
- IC50 [9]: > 14.6 µM (not active)

Compound: COc1ccc(C2N(c3ccc(Cl)cc3)N=C(C(C)=O)N(C)N2C(C)=O)cc1 (stereo not given)
- IC50 [10]: > 35 µM (not active)
- IC50 [11]: > 35 µM (not active)

Compound: O=C(COC(=O)/C=C/C(=O)OCC(=O)NC12CC3CC(CC(C3)C1)C2)NC12CC3CC(CC(C3)C1)C2
- EC50 [12]: > 40 µM (inactive)
